Assay results as given in patent US11446298B2, “Pyrimidine derivatives” (Idorsia Pharmaceuticals Ltd, priority 2017, dated 2022).

Legend:
Type in all cases: cell-based
[1] = target: T1, PTGER2 (EP2) (Homo sapiens, UniProt P43116); experiment: hEP2 b-Arrestin Assay (PathHunter HEK 293 PTGER2 b-arrestin cells, PGE2 5 μM); conditions: antagonistic activity, beta-arrestin assay, HEK 293 PTGER2 cells, PGE2 5 μM (EC80); read-out: hEP2 b-arr IC50
T1 construct: host or cells: HEK 293 (PathHunter, stably transfected)
Method: (§1) The antagonistic activities of the compounds of formula (I) on the EP2 and EP4 receptors are also determined in accordance with the following experimental method.
The assay is using the PathHunter™ HEK 293 PTGER2 and PTGER4 b-arrestin cell lines from DiscoverX. The system is based on the Enzyme Fragment Complementation Technology. Two complementing fragments of the b-galactosidase enzyme are expressed within stably transfected cells. The larger portion of b-gal, termed EA for Enzyme Acceptor, is fused to the C-terminus of b-arrestin 2. The smaller fragment, termed ProLink™ tag, is fused to PTGER2 (EP2) or PTRGER4 (EP4) at the C-terminus. Upon activation, b-arrestin is recruited which forces the interaction of ProLink and EA, allowing complementation of the two fragments of b-gal and the formation of a functional enzyme which is capable of hydrolysing the substrate and generating a chemiluminescent signal.
The HEK 293 PTGER2 b-arrestin cells (DiscoverX 93-021-4C1) are detached from culture dishes with a cell dissociation buffer (Invitrogen, 13151-014), and collected in growing medium (GM: DMEM+Glutamax-I (Invitrogen 32430)/10% FCS, 1% Penicilin/streptomycin). 5000 cells per well of a 384 well plate (white with white bottom Greiner 781080) are seeded in 20 μl per well of GM. Plate is incubated at 37° C., 5% CO2 for 24 hours.
Stock solutions of test compounds are made at a concentration of 10 mM in DMSO, and serially diluted in DMSO to concentrations required for inhibition dose response curves (tested concentration range 10 μM-2 nM or 1 μM-0.2 nM).
PGE2 (Cayman 14010, stock solution: 10 mM in DMSO) is used as agonist at 5 μM final concentration, corresponding to EC80.
Five microliters of diluted compounds are transferred into the assay plate. Plate is pre-incubated 15 minutes at 37° C. Then five microliters of PGE2 (final conc. 5 μM) are transferred into the assay plate. Plate is incubated 120 minutes at 37° C.
PathHunter Glo Detection Kit components are thawed and mix according to manufacturer's instructions: 1 part Galacton Star Substrate with 5 parts Emerald II™ Solution, and 19 parts of PathHunter Cell Assay Buffer, respectively. Twelve μl of reagent are transferred to the assay plate and incubate for 1 hour at room temperature in the dark. Luminescence counts are read on a BMG Fluostar Optima reader according to manufacturer's instructions.
For each compound concentration calculate of the percentage of activity compared to DMSO control value as average ±STDEV. (each concentration is measured in duplicate)
(§2) IC50 values and curves are generated with XLfit software (IDBS) using Dose-Response One Site model 203. When compounds were measured multiple times, mean values are given.

[2] = target: T2, EP2 (Homo sapiens, UniProt P43116); experiment: hEP2 cAMP Assay (SF295 glioblastoma cells, HTRF cAMP, PGE2 75 nM); conditions: antagonistic activity, PGE2 75 nM (EC80)
T2 construct: SF295 glioblastoma cells express high endogenous EP2 and no EP4; host or cells: SF295 glioblastoma cells
Method: as §1
(§3) Human tumor cell lines expressing endogenously either EP4 or EP2 are used and cAMP accumulation in cells upon PGE2 stimulation is monitored. SF295 glioblastoma cells express high endogenous EP2 and no EP4, whereas BT549 breast cancer cells, express high endogenous EP4 levels and very low EP2 levels.
(§4) As a detection method for cAMP the HTRF (homogeneous time resolved fluorescence) Cisbio kit (HTRF cAMP dynamic 2 kit 20′000 tests Cisbio Cat. #62AM4PEC) was used, which is based on a competitive immunoassay using a Cryptate-labeled anti-cAMP antibody and d2-labeled cAMP. Native cAMP produced by cells or unlabeled cAMP (for the standard curve) compete with exogenously added d2-labeled cAMP (acceptor) for binding to monoclonal anti-cAMP-Eu3+Cryptate (donor). A FRET signal (Fluorescence Resonance Energy Transfer) is obtained only if the labeled anti-cAMP antibody binds the d2 labelled cAMP, thus the specific signal (i.e. energy transfer) is inversely proportional to the concentration of cAMP in the standard or sample.
(§5) The SF295 cells (NCI/No. 0503170) are detached from culture dishes with a cell dissociation buffer (Invitrogen, 13151-014), and collected in growing medium (GM: RPM11640 (Invitrogen 21875)/10% FCS, 1% Penicilin/streptomycin). Cells are counted washed and resuspended in assay buffer (AB; HBSS, 20 mM HEPES, 0.2% BSA; 2 mM IBMX). 4′000 cells in 5 μL of AB are seeded per well of a small volume 384 well plate (black with flat bottom, Greiner 784076).
(§6) Stock solutions of test compounds are made at a concentration of 10 mM in DMSO, and serially diluted in DMSO to concentrations required for inhibition dose response curves (tested concentration range 30 μM-0.4 nM; 30 μM-0.015 nM or 1 μM-0.01 nM).
PGE2 (Cayman 14010, stock solution: 75 μM in DMSO) is used as agonist at 75 nM final concentration, corresponding to EC80.
(§7) 2.5 μL of diluted compounds are transferred into the assay plate. Plate is pre-incubated 45 minutes at room temperature. Subsequently, 2.5 μL of PGE2 (final conc. 75 nM) are transferred into the assay plate. Plate is incubated 30 minutes at room temperature. Five μL of each donor (anti-cAMP cryptate) and acceptor (cAMP-d2) are added and the plate is incubated another hour at room temperature in the dark and then read using a BMG LABTECH PHERAstar reader (Excitation: 337 nm, Emission: 620 and 665 nm).
(§8) The obtained Delta F (fluorescence) values (665 nm/620 nM) are converted into % cAMP values using the measurements of the cAMP calibrator provided in the kit. For each compound concentration the percentage of cAMP compared to DMSO control value as average ±STDEV (each concentration is measured in duplicate) is calculated.
as §2

[3] = target: T3, EP4 (Homo sapiens, UniProt P35408); experiment: hEP4 cAMP Assay (BT549 breast cancer cells, HTRF cAMP, PGE2 6 nM); conditions: antagonistic activity, PGE2 6 nM (EC80)
T3 construct: BT549 breast cancer cells, express high endogenous EP4 levels and very low EP2 levels; host or cells: BT549 breast cancer cells
Method: as §1, §3, §4
as §5, with “BT549” for “SF295”, “0507282)” for “0503170)”, “RPMI1640” for “RPM11640”
as §6
PGE2 (Cayman 14010, stock solution: 6 uM in DMSO) is used as agonist at 6 nM final concentration, corresponding to EC80.
as §7, with “6” for “75”, “5” for “Five”
as §8, §2

T2 sequence (P43116 whole entry): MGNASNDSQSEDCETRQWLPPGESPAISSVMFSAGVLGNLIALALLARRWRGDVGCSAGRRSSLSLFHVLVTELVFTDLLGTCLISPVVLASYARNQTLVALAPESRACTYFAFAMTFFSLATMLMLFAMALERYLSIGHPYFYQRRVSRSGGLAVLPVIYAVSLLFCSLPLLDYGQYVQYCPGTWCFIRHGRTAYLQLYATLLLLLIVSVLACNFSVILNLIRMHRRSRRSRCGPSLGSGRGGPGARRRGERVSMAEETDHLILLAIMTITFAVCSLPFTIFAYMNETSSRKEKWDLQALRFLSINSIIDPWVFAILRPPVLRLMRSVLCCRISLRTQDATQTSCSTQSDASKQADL
T1 sequence (P43116 whole entry): as above
T3 sequence (P35408 whole entry): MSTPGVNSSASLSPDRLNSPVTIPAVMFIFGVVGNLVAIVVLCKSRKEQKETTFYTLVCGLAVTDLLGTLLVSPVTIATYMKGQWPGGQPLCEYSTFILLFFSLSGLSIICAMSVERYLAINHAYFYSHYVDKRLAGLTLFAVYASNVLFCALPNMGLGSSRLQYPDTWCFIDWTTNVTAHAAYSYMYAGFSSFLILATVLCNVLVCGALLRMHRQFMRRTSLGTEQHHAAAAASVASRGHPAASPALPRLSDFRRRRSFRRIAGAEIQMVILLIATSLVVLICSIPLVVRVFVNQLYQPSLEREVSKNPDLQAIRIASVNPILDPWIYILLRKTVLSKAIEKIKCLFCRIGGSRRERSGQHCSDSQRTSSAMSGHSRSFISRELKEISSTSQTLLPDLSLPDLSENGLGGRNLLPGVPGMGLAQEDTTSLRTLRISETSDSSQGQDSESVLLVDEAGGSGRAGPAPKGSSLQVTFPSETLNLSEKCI

Row | IC50 [1] [nM] | IC50 [2] [nM] | IC50 [3] [nM] | SMILES
1 | 47 | 27 | 459 | COc1ccc2ncccc2c1CCNc1cc(-c2ccc(-c3nnc(N)s3)cc2)ncn1 [Example 113, {6-[4-(5-Amino-[1,3,4]thiadiazol-2-yl)-phenyl]-pyrimidin-4-yl}-[2-(6-methoxy-quiolin-5-yl)-ethyl]-amine]
2 | 50 | 171 | 855 | CCOc1cc(-c2cc(NCCc3c(C)ccc4c3cnn4C)ncn2)ccc1O [Example 111, 4-{6-[2-(1,5-Dimethyl-1H-indazol-4-yl)-ethylamino]-pyrimidin-4-yl}-2-ethoxy-phenol]
3 | 66 | 180 | 426 | CCOc1cc(-c2cc(NCCc3c(F)ccc4ccccc34)ncn2)ccc1OCC(=O)O [Example 96, (2-Ethoxy-4-{6-[2-(2-fluoro-naphthalen-1-yl)-ethylamino]-pyrimidin-4-yl}-phenoxy)-acetic acid]
4 | 99 | 239 | 300 | CCOc1cc(-c2cc(NCCc3ccc(Cl)c4ccccc34)ncn2)ccc1OCC(=O)O [Example 63, (4-{6-[2-(4-Chloro-naphthalen-1-yl)-ethylamino]-pyrimidin-4-yl}-2-ethoxy-phenoxy)-acetic acid]
5 | 146 | 228 | 818 | COc1ccc2ncccc2c1CCNc1cc(-c2ccc(-c3c(O)c(=O)c3=O)cc2)ncn1 [Example 91, 3-Hydroxy-4-(4-{6-[2-(6-methoxy-quinolin-5-yl)-ethylamino]-pyrimidin-4-yl}-phenyl)-cyclobut-3-ene-1,2-dione]
6 | 94 | 155 | 645 | CCOc1cc(-c2cc(NCCc3c(OC)ccc4ncccc34)ncn2)ccc1NCC(=O)O [Example 88, (2-Ethoxy-4-{6-[2-(6-methoxy-quinolin-5-yl)-ethylamino]-pyrimidin-4-yl}-phenylamino)-acetic acid]
7 | 177 | 77 | 674 | CCOc1cc(-c2cc(NCCc3c(C)ccc4cnccc34)ncn2)ccc1OCC(=O)O [Example 86, (2-Ethoxy-4-{6-[2-(6-methyl-isoquinolin-5-yl)-ethylamino]-pyrimidin-4-yl}-phenoxy)-acetic acid]
8 | 66 | 119 | 405 | CCOc1cc(-c2cc(NCCc3c(OC)ccc4ncccc34)ncn2)sc1C(=N)NO [Example 146, 3-Ethoxy-N-hydroxy-5-{6-[2-(6-methoxy-quinolin-5-yl)-ethylamino]-pyrimidin-4-yl}-thiophene-2-carboxamidine]
9 | 36 | 36 | 427 | CCOc1cc(-c2cc(NCCc3c(F)ccc4ccccc34)ncn2)ccc1C(=O)O [Example 93, 2-Ethoxy-4-{6-[2-(2-fluoro-naphthalen-1-yl)-ethylamino]-pyrimidin-4-yl}-benzoic acid]

Further lines, the molecule ahead of its results:

Row | SMILES | IC50 [1] [nM] | IC50 [2] [nM] | IC50 [3] [nM]
10 | CCOc1cc(-c2cc(NCCc3ccc(F)c4ccccc34)ncn2)ccc1C(=O)O [Example 19, 2-Ethoxy-4-{6-[2-(4-fluoro-naphthalen-1-yl)-ethylamino]-pyrimidin-4-yl}-benzoic acid] | 129 | 93 | 646
11 | O=C(O)c1ccc(-c2cc(NCCc3cccc4ccsc34)ncn2)cc1OC1CCC1 [Example 102, 4-[6-(2-Benzo[b]thiophen-7-yl-ethylamino)-pyrimidin-4-yl]-2-cyclobutoxy-benzoic acid] | 145 | 224 | 263
12 | Cc1ccc2c(cnn2C)c1CCNc1cc(-c2ccc3ccncc3c2)ncn1 [Example 115, [2-(1,5-Dimethyl-1H-indazol-4-yl)-ethyl]-(6-isoquinolin-7-yl-pyrimidin-4-yl)-amine] | 245 | 95 | 493
13 | Cc1ccc2cnccc2c1CCNc1cc(-c2ccc(C(=O)O)c(OC3CCC3)c2)ncn1 [Example 84, 2-Cyclobutoxy-4-{6-[2-(6-methyl-isoquinolin-5-yl)-ethylamino]-pyrimidin-4-yl}-benzoic acid] | 149 | 179 | 989
14 | COc1ccc2ccccc2c1CCNc1cc(-c2cc3cc(C(=O)O)ccc3[nH]2)ncn1 [Example 130, 2-{6-[2-(2-Methoxy-naphthalen-1-yl)-ethylamino]-pyrimidin-4-yl}-1H-indole-5-carboxylic acid] | 13 | 27 | 546
15 | O=C(O)c1ccc(-c2cc(NCCc3c(F)ccc4ccccc34)ncn2)cc1OC1CCC1 [Example 94, 2-Cyclobutoxy-4-{6-[2-(2-fluoro-naphthalen-1-yl)-ethylamino]-pyrimidin-4-yl}-benzoic acid] | 34 | 53 | 368
16 | CCOc1cc(-c2cc(NCCc3c(F)ccc4ccccc34)ncn2)ccc1CC(=O)O [Example 97, (2-Ethoxy-4-{6-[2-(2-fluoro-naphthalen-1-yl)-ethylamino]-pyrimidin-4-yl}-phenyl)-acetic acid] | 132 | 218 | 355
